For data set [1], the system named is Syrian golden hamster. Nature of the data set: Lipid lowering effect on high-fat diet-fed golden hamster assessed as decrease in serum LDL-C level at 200 mg/kg, po qd administered via gavage measured after 4 weeks relative to control. Type of data set: functional, Mesocricetus auratus. Details: scale not given: the % may be the effect or the level left.
For data set [2], the system named is Syrian golden hamster. The data set can be described thus: Lipid lowering effect on high-fat diet-fed golden hamster assessed as decrease in serum TC level administered orally once daily via gavage measured after 4 weeks. Type of data set: functional, organism-based. The note with it: Mesocricetus auratus, dose 50-200 mg/kg, route po.
The test system of data set [3] is Syrian golden hamster. Nature of the data set: Effect on body weight gain in high-fat diet-fed golden hamster at 50 to 200 mg/kg, po qd administered via gavage measured after 4 weeks. Type of data set: functional, organism-based. The note with it: Mesocricetus auratus, dose 50-200 mg/kg.
Data set [4] deals with Syrian golden hamster. Nature of the data set: Effect on food uptake in high-fat diet-fed golden hamster at 50 to 200 mg/kg, po qd administered via gavage measured after 4 weeks. Type of data set: functional, organism-based. The note with it: Mesocricetus auratus, dose 50-200 mg/kg.
Data set [5] concerns Syrian golden hamster. Nature of the data set: Lipid lowering effect on high-fat diet-fed golden hamster assessed as decrease in AST level in liver at 50 to 200 mg/kg, po qd administered via gavage measured after 4 weeks. Type of data set: functional, organism-based. The note with it: Mesocricetus auratus, dose 50-200 mg/kg.
Data set [6] concerns Syrian golden hamster. The data set can be described thus: Lipid lowering effect on high-fat diet-fed golden hamster assessed as decrease in TG level in liver at 100 to 200 mg/kg, po qd administered via gavage measured after 4 weeks. The note with it: Mesocricetus auratus, dose 100-200 mg/kg. The class given is functional, organism-based.
Data set [7] relates to Syrian golden hamster. The data set can be described thus: Effect on adipose tissue weight in high-fat diet-fed golden hamster at 50 to 200 mg/kg, po qd administered via gavage measured after 4 weeks. Type of data set: functional, organism-based. The note with it: Mesocricetus auratus, dose 50-200 mg/kg.
Data set [8] has as its system Syrian golden hamster. Nature of the data set: Effect on serum TG level in high-fat diet-fed golden hamster harboring LDLR-/- at 50 to 200 mg/kg, po qd administered via gavage measured after 8 weeks. The class given is functional, organism-based. The note with it: Mesocricetus auratus, dose 50-200 mg/kg.
Data set [9] deals with Rhesus monkey. The data set can be described thus: Lipid lowering effect in Rhesus monkey assessed as LDL-C level at 35 mg/kg, NG qd treated for 35 days followed by drug washout for 14 days. Type of data set: functional, Macaca mulatta. The following applies: time 35 day.
The test system of data set [10] is Rhesus monkey. Nature of the data set: Lipid lowering effect in Rhesus monkey assessed as decrease in blood LDL-C level at 35 mg/kg, NG qd treated for 35 days followed by drug washout for 14 days relative to control. Type of data set: functional, Macaca mulatta. Details: scale not given: the % may be the effect or the level left. The following applies: time 35 day.

The species named for data set [11] is Homo sapiens. Nature of the data set: Downregulation of serum LDL-C level in human at 2000 mg bid for 7 days. The note with it: time 7.0 day. Type of data set: functional.
Data set [12] relates to Mus musculus. The data set can be described thus: Downregulation of Cidea mRNA level in liver of high-fat diet-fed C57BL/6 mouse model at 200 mg/kg, po for 4 weeks by GO analysis. The class given is functional, organism-based.
For data set [13], the system named is Mus musculus. The data set can be described thus: Downregulation of Dnajb9 mRNA level in liver of high-fat diet-fed C57BL/6 mouse model at 200 mg/kg, po for 4 weeks by GO analysis. Type of data set: functional, organism-based.
The subject of data set [14] is Mus musculus. The data set can be described thus: Downregulation of Ctgf mRNA level in liver of high-fat diet-fed C57BL/6 mouse model at 200 mg/kg, po for 4 weeks by GO analysis. The class given is functional, organism-based.
For data set [15], the system named is Mus musculus. The data set can be described thus: Upregulation of Gadd45b mRNA level in liver of high-fat diet-fed C57BL/6 mouse model at 200 mg/kg, po for 4 weeks by GO analysis. Type of data set: functional, organism-based.
Data set [16] concerns Mus musculus. The data set can be described thus: Effect on Cidea mRNA level in liver of diet-induced obese C57BL/6 mouse model harboring AMPKalpha LS-/- at 200 mg/kg, po for 4 weeks by GO analysis. Type of data set: functional, organism-based.
Data set [17] concerns Mus musculus. Nature of the data set: Effect on Mvd mRNA level in liver of diet-induced obese C57BL/6 mouse model harboring AMPKalpha LS-/- at 200 mg/kg, po for 4 weeks by GO analysis. Type of data set: functional, organism-based.
Data set [18] relates to Mus musculus. Nature of the data set: Effect on Dhcr7 mRNA level in liver of diet-induced obese C57BL/6 mouse model harboring AMPKalpha LS-/- at 200 mg/kg, po for 4 weeks by GO analysis. The class given is functional, organism-based.
The test system of data set [19] is Mus musculus. The data set can be described thus: Effect on Aacas mRNA level in liver of diet-induced obese C57BL/6 mouse model harboring AMPKalpha LS-/- at 200 mg/kg, po for 4 weeks by GO analysis. The class given is functional, organism-based.
Data set [20] has as its system Mus musculus. Nature of the data set: Effect on Mogat1 mRNA level in liver of diet-induced obese C57BL/6 mouse model harboring AMPKalpha LS-/- at 200 mg/kg, po for 4 weeks by GO analysis. Type of data set: functional, organism-based.
A short description of data set [21]: Tmax in female Rhesus monkey at 70 mg/kg, po or 7 mg/kg, iv measured for 36 hrs by LC-tandem MS analysis. The note with it: in vivo. The class given is ADME, organism-based, Macaca mulatta.
A short description of data set [22]: Tmax in male Rhesus monkey at 70 mg/kg, po or 7 mg/kg, iv measured for 36 hrs by LC-tandem MS analysis. The class given is ADME, organism-based, Macaca mulatta. The note with it: in vivo.
Data set [23] in a line: Stability in human Caco-2 cells assessed as compound remaining at 10 ug/ml measured after 1 hr by LC-MS/MS analysis. The following applies: at 10 µg/mL, read-out: Stability. The class given is ADME, cell-based.
Data set [24] in a line: Stability in human liver microsomes assessed as […] at 1 uM measured for 60 mins in presence of NADPH by LC-MS/MS analysis. Type of data set: ADME, Microsome. The following applies: read-out: QH.

In general, Tmax refers to the time from dosing to the highest level.

Activity calls are given as the source filed them. The rule behind the calls is not given here.

As to `CC(=O)OC[C@H]1O[C@@H](n2cnc3c(Nc4cccc(O)c4)ncnc32)[C@H](OC(C)=O)[C@@H]1OC(C)=O`, the Activity in data set [1] is 42%; in data set [2] it was “Dose-Dependent Effect”; in data set [9] it was 1.25 mmol/L; in data set [10], 11.93%. For the same compound, the result in data set [3], in data set [4], in [7], in [8], in data set [16] and in [17] was inactive. In addition, the result in [18], in data set [19] and in data set [20] was inactive. Besides, the result in data set [5], in data set [6], in data set [11], in data set [12], in data set [13] and in data set [14] was Active. For the same compound, in data set [15], the outcome was Active. Also, the Tmax in data set [21] was 2.25 h; in data set [22] it was 1.5 h. For the same compound, the remaining at 1 h, 10 ug/ml in [23] came to 77%. Besides, the hepatic extraction ratio at 1 h, 1 µM in data set [24] was more than 0.7.

The values are drawn from ChEMBL document CHEMBL5506050, “Discovery of Oral AMP-Activated Protein Kinase Activators for Treating Hyperlipidemia” (J Med Chem, 2024).
